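Cells were grown in 96-well plates and exposed to each compound for 48 hours at five concentrations; endpoints were interpolated linearly between bracketing concentrations, or set to the highest concentration if not reached. GI50 is the concentration that inhibits growth by half. TGI: concentration producing complete growth inhibition.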
What was measured:
Experiment in all cases: NCI anticancer screen, dose series, 48 h
HT29 colon = tested on: HT29 colon
NCI-H226 lung = tested on: NCI-H226 lung
TK-10 renal = tested on: TK-10 renal
HS 578T breast = tested on: HS 578T breast
K-562 leukemia = tested on: K-562 leukemia
SF-295 CNS = tested on: SF-295 CNS
U251 CNS = tested on: U251 CNS
MDA-MB-231 breast = tested on: MDA-MB-231 breast
MDA-MB-435 = tested on: MDA-MB-435
KM20L2 colon = tested on: KM20L2 colon
DLD-1 colon = tested on: DLD-1 colon

COc1ccc(/C=N/Nc2[nH]c(=S)nc3[nH]ncc23)cc1
TGI (HT29 colon): > 100 µM
TGI (NCI-H226 lung): > 100 µM
TGI (TK-10 renal): 65.9 µM
TGI (HS 578T breast): > 100 µM
TGI (K-562 leukemia): > 100 µM
TGI (SF-295 CNS): > 100 µM
TGI (U251 CNS): 40.7 µM
TGI (MDA-MB-231 breast): > 100 µM
TGI (MDA-MB-435): > 100 µM

COc1cc(N=Nc2cccc(S(=O)(=O)O)c2)c(C)cc1N=Nc1ccc(/C=C/c2ccc(N=[N+]([O-])c3ccc(/C=C/c4ccc(N=Nc5cc(C)c(N=Nc6cccc(S(=O)(=O)O)c6)cc5OC)cc4)c(S(=O)(=O)O)c3)cc2S(=O)(=O)O)cc1
TGI (HT29 colon): > 100 µM
TGI (NCI-H226 lung): > 100 µM
TGI (K-562 leukemia): > 100 µM
TGI (KM20L2 colon): > 100 µM
TGI (DLD-1 colon): > 100 µM
TGI (SF-295 CNS): > 100 µM
TGI (U251 CNS): > 100 µM

Cc1ncc([N+](=O)[O-])n1CCN=[N+]=[N-]
TGI (HT29 colon): > 100 µM
TGI (NCI-H226 lung): > 100 µM
TGI (TK-10 renal): > 100 µM
TGI (HS 578T breast): > 100 µM
TGI (K-562 leukemia): > 100 µM
TGI (SF-295 CNS): > 100 µM
TGI (U251 CNS): > 100 µM
TGI (MDA-MB-231 breast): > 100 µM
TGI (MDA-MB-435): > 100 µM

COc1ccccc1C1C(C#N)=C(N)OC2=C1C(=O)CCC2 (stereo not drawn)
GI50 (HT29 colon): > 100 µM
TGI (HT29 colon): > 100 µM
GI50 (NCI-H226 lung): 74.2 µM
TGI (NCI-H226 lung): > 100 µM
GI50 (TK-10 renal): > 100 µM
TGI (TK-10 renal): > 100 µM
GI50 (HS 578T breast): > 100 µM
TGI (HS 578T breast): > 100 µM
GI50 (K-562 leukemia): > 100 µM
TGI (K-562 leukemia): > 100 µM
GI50 (SF-295 CNS): > 100 µM
TGI (SF-295 CNS): > 100 µM
GI50 (U251 CNS): > 100 µM
TGI (U251 CNS): > 100 µM
GI50 (MDA-MB-231 breast): 16.2 µM
TGI (MDA-MB-231 breast): > 100 µM
GI50 (MDA-MB-435): > 100 µM
TGI (MDA-MB-435): > 100 µM

COc1cc(C2C(Cl)C(=O)N2c2ccc(Br)cc2)cc(I)c1O (stereo not drawn)
TGI (HT29 colon): > 100 µM
TGI (TK-10 renal): > 100 µM
TGI (HS 578T breast): > 100 µM
TGI (K-562 leukemia): > 100 µM
TGI (SF-295 CNS): > 100 µM
TGI (U251 CNS): > 100 µM
TGI (MDA-MB-231 breast): > 100 µM
TGI (MDA-MB-435): > 100 µM

O=S1(=O)NNC(=NCc2ccc(F)cc2)c2ccccc21
TGI (HT29 colon): > 100 µM
TGI (NCI-H226 lung): > 100 µM
TGI (HS 578T breast): 49.2 µM
TGI (K-562 leukemia): > 73.1 µM
TGI (KM20L2 colon): > 100 µM
TGI (DLD-1 colon): > 100 µM
TGI (SF-295 CNS): > 100 µM
TGI (U251 CNS): > 83.4 µM
TGI (MDA-MB-231 breast): > 100 µM
TGI (MDA-MB-435): > 100 µM

NC(N)=N/N=C(\c1ccc(Cl)cc1)C1CC1
TGI (HT29 colon): 32.2 µM
TGI (NCI-H226 lung): 33.2 µM
TGI (TK-10 renal): 29.9 µM
TGI (HS 578T breast): 78.3 µM
TGI (K-562 leukemia): 55.7 µM
TGI (SF-295 CNS): 48.3 µM
TGI (U251 CNS): 27.2 µM
TGI (MDA-MB-231 breast): 34.9 µM
TGI (MDA-MB-435): 34.7 µM

C=C1C(=O)O[C@H]2C1[C@H](OC(=O)/C(C)=C\COC(C)=O)C[C@]1(CO1)[C@@H]1[C@H](O)[C@H]3O[C@@]3(C)[C@@H]12 (stereo partly drawn)
TGI (HT29 colon): 40.8 µM
TGI (NCI-H226 lung): 78.1 µM
TGI (K-562 leukemia): 27 µM
TGI (KM20L2 colon): > 82.7 µM
TGI (DLD-1 colon): 34.1 µM
TGI (SF-295 CNS): > 100 µM
TGI (U251 CNS): 44.7 µM

COc1ccc(CNc2nc(NCc3ccc(OC)cc3)nc(NC3CCCCC3)n2)cc1
TGI (HT29 colon): > 100 µM
TGI (NCI-H226 lung): 5.71 µM
TGI (TK-10 renal): 4.11 µM
TGI (HS 578T breast): 4.85 µM
TGI (K-562 leukemia): > 100 µM
TGI (SF-295 CNS): 4.14 µM
TGI (U251 CNS): > 100 µM
TGI (MDA-MB-231 breast): 7.73 µM
TGI (MDA-MB-435): 1.94 µM

COc1cc(S(=O)(=O)Nc2nc(-c3ccc(N4C(=O)/C(=C/c5ccccc5)N=C4c4ccccc4)cc3)cs2)ccc1Cl
TGI (HT29 colon): > 100 µM
TGI (NCI-H226 lung): > 100 µM
TGI (TK-10 renal): > 100 µM
TGI (HS 578T breast): 93.6 µM
TGI (K-562 leukemia): > 100 µM
TGI (SF-295 CNS): > 100 µM
TGI (U251 CNS): > 100 µM
TGI (MDA-MB-231 breast): 70.1 µM
TGI (MDA-MB-435): > 100 µM

CCOC(=O)/C=C1\Nc2ccccc2C12CCc1c([nH]c3ccccc13)C2C(=O)OCC (stereo not drawn)
TGI (HT29 colon): > 100 µM
TGI (TK-10 renal): > 100 µM
TGI (HS 578T breast): > 100 µM
TGI (K-562 leukemia): > 100 µM
TGI (SF-295 CNS): > 100 µM
TGI (U251 CNS): > 100 µM
TGI (MDA-MB-231 breast): > 100 µM
TGI (MDA-MB-435): 40.5 µM

COC(=O)C(C)N1C(=O)c2ccccc2I1OC(C)=O (stereo not drawn)
GI50 (HT29 colon): 26.3 µM
TGI (HT29 colon): 97.5 µM
GI50 (NCI-H226 lung): > 100 µM
TGI (NCI-H226 lung): > 100 µM
GI50 (TK-10 renal): 29.2 µM
TGI (TK-10 renal): > 100 µM
GI50 (HS 578T breast): > 100 µM
TGI (HS 578T breast): > 100 µM
GI50 (K-562 leukemia): 41.6 µM
TGI (K-562 leukemia): > 100 µM
GI50 (SF-295 CNS): > 100 µM
TGI (SF-295 CNS): > 100 µM
GI50 (U251 CNS): 34.8 µM
TGI (U251 CNS): > 100 µM
GI50 (MDA-MB-231 breast): 25.4 µM
TGI (MDA-MB-231 breast): > 100 µM
GI50 (MDA-MB-435): > 100 µM
TGI (MDA-MB-435): > 100 µM

CCCCc1ccc2[n+](c1)C(C(=O)OCC)=PC2 (stereo not drawn)
TGI (HT29 colon): > 100 µM
TGI (TK-10 renal): > 100 µM
TGI (HS 578T breast): > 100 µM
TGI (SF-295 CNS): > 100 µM
TGI (U251 CNS): > 100 µM
TGI (MDA-MB-435): > 100 µM

CC(C)=CCN(N=O)c1ncnc2nc[nH]c12
TGI (HT29 colon): > 100 µM
TGI (NCI-H226 lung): > 100 µM
TGI (TK-10 renal): > 100 µM
TGI (HS 578T breast): > 100 µM
TGI (K-562 leukemia): > 100 µM
TGI (SF-295 CNS): > 100 µM
TGI (MDA-MB-231 breast): > 100 µM
TGI (MDA-MB-435): > 100 µM

CCOC(=O)c1c2c(n(C)c1-c1ccccc1)C(=O)C(C)=CC2=O
TGI (HT29 colon): 35.1 µM
TGI (NCI-H226 lung): 24.9 µM
TGI (TK-10 renal): 22.1 µM
TGI (HS 578T breast): 56.7 µM
TGI (K-562 leukemia): > 33.2 µM
TGI (SF-295 CNS): 36.8 µM
TGI (U251 CNS): 22.8 µM
TGI (MDA-MB-231 breast): 4.62 µM
TGI (MDA-MB-435): 3.68 µM

CC(C)(C)OC(=O)NC(Cc1ccccc1)C(=O)N[C@H]1c2ccsc2/C(=N/O)[C@H]1O (stereo partly drawn)
TGI (HT29 colon): > 100 µM
TGI (NCI-H226 lung): > 100 µM
TGI (TK-10 renal): > 100 µM
TGI (K-562 leukemia): > 100 µM
TGI (SF-295 CNS): > 100 µM
TGI (U251 CNS): > 100 µM
TGI (MDA-MB-231 breast): > 100 µM
TGI (MDA-MB-435): > 100 µM

O=C1c2ccccc2-c2ccc(NC(=O)C3CCCCC3C(=O)O)cc21 (stereo not drawn)
TGI (HT29 colon): > 100 µM
TGI (NCI-H226 lung): > 100 µM
TGI (TK-10 renal): > 100 µM
TGI (HS 578T breast): > 100 µM
TGI (K-562 leukemia): > 100 µM
TGI (SF-295 CNS): > 100 µM
TGI (U251 CNS): > 100 µM
TGI (MDA-MB-231 breast): > 100 µM
TGI (MDA-MB-435): > 100 µM

O=CNc1cccc2c3c([nH]c12)CCCCCC3
TGI (HT29 colon): > 100 µM
TGI (NCI-H226 lung): > 100 µM
TGI (K-562 leukemia): > 100 µM
TGI (KM20L2 colon): > 100 µM
TGI (DLD-1 colon): > 100 µM
TGI (SF-295 CNS): > 100 µM
TGI (U251 CNS): > 100 µM

CCOC(=O)C1C(c2cc(OC)c(O)c(OC)c2)c2cc3c(cc2OC1(C)O)OCO3 (stereo not drawn)
TGI (HT29 colon): > 100 µM
TGI (TK-10 renal): > 100 µM
TGI (K-562 leukemia): > 100 µM
TGI (KM20L2 colon): > 100 µM
TGI (DLD-1 colon): > 100 µM
TGI (SF-295 CNS): > 100 µM
TGI (U251 CNS): > 100 µM

Cc1cc(NS(=O)(=O)c2ccc(Nc3c4ccccc4nc4c(C(=O)NCCN(C)C)ccc(Cl)c34)cc2)no1
TGI (HT29 colon): 14.4 µM
TGI (NCI-H226 lung): 4.57 µM
TGI (TK-10 renal): 27.1 µM
TGI (K-562 leukemia): 21.2 µM
TGI (KM20L2 colon): 24 µM
TGI (DLD-1 colon): 17 µM
TGI (SF-295 CNS): 16.2 µM
TGI (U251 CNS): 13.6 µM

From PubChem BioAssay (NCI)
